In ChEMBL document CHEMBL1139192, “Novel bis(indolyl)maleimide pyridinophanes that are potent, selective inhibitors of glycogen synthase kinase-3” (Bioorg Med Chem Lett, 2007):

Key:
[1] = target: Glycogen synthase kinase-3 beta (Homo sapiens, UniProt P49841); experiment: Inhibition of human recombinant GSK3-beta
[2] = target: Macrophage colony-stimulating factor 1 receptor (Homo sapiens) (UniProt P07333); experiment: Residual activity of human Fms at 1 uM relative to control
[3] = target: Fibroblast growth factor receptor 3 (Homo sapiens) (UniProt P22607); experiment: Residual activity of human FGFR3 at 1 uM relative to control
[4] = target: Insulin-like growth factor 1 receptor (Homo sapiens) (UniProt P08069); experiment: Residual activity of human IGF1R at 1 uM relative to control
[5] = target: RAC-beta serine/threonine-protein kinase (Homo sapiens) (UniProt P31751); experiment: Residual activity of human PKBbeta at 1 uM relative to control
[6] = target: T1, Protein kinase C epsilon type (Homo sapiens) (UniProt Q02156); experiment: Residual activity of human PKCepsilon at 1 uM relative to control
T1 sequence (whole entry): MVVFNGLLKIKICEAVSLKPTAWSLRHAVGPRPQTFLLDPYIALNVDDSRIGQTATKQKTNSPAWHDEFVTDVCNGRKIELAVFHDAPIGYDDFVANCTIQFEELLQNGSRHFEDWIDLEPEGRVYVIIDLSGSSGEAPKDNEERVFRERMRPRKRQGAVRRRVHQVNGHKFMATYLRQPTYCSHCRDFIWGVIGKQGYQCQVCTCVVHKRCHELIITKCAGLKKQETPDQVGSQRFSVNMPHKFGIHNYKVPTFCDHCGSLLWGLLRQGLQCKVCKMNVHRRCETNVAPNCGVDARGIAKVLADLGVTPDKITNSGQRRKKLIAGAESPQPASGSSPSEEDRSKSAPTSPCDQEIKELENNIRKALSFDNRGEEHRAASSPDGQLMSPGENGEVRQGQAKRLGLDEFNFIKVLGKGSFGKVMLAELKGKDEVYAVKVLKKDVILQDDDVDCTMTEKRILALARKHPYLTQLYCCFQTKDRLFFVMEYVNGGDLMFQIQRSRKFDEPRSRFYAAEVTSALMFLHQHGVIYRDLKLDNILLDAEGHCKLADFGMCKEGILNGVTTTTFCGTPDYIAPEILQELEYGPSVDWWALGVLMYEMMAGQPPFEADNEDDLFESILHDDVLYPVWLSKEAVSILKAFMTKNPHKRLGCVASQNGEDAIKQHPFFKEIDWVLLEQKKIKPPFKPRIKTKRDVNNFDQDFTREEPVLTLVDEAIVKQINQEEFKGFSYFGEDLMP

[7] = system: Tyrosine-protein kinase ABL1 (Homo sapiens), P00519 [T315I]; experiment: Residual activity of human Abl T315I mutant at 1 uM relative to control
[8] = target: Tyrosine-protein kinase Fes/Fps (Homo sapiens) (UniProt P07332); experiment: Inhibition of human Fes at 1 uM relative to control; values are per cent of control
[9] = target: T2, Serine/threonine-protein kinase 3 (Homo sapiens) (UniProt Q13188); experiment: Inhibition of human MST2 at 1 uM relative to control; values are per cent of control
T2 sequence (whole entry): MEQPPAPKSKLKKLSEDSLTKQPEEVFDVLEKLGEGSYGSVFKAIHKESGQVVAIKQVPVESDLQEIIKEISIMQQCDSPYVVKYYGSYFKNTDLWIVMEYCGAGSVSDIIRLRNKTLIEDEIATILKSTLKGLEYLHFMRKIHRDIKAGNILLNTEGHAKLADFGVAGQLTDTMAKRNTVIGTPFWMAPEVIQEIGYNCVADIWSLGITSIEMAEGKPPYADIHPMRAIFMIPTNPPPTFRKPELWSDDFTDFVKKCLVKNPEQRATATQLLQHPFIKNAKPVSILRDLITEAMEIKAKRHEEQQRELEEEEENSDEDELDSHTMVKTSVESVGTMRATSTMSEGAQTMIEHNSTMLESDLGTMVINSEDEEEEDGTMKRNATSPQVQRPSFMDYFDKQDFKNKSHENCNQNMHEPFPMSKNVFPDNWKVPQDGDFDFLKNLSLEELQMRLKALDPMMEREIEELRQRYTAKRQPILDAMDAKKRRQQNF

[10] = target: T3, MAP kinase-activated protein kinase 5 (Homo sapiens) (UniProt Q8IW41); experiment: Inhibition of human PRAK at 1 uM relative to control; values are per cent of control
T3 sequence (whole entry): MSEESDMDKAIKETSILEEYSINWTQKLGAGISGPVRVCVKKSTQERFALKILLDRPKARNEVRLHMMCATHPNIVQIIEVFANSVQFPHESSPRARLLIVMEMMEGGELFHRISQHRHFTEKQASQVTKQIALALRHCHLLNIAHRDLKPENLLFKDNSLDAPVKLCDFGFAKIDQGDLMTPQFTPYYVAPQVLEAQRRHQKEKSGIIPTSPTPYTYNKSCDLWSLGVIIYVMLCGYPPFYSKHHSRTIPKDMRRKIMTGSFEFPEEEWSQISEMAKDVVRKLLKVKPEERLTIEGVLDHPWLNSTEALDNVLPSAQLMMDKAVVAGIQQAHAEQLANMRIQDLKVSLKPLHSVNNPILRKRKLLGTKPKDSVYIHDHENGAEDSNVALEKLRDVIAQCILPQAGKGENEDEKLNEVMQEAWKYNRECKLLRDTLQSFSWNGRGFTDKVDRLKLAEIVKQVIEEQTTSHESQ

[11] = target: Ribosomal protein S6 kinase alpha-2 (Homo sapiens) (UniProt Q15349); experiment: Inhibition of human Rsk2 at 1 uM relative to control; values are per cent of control
[12] = target: Ribosomal protein S6 kinase alpha-3 (Homo sapiens) (UniProt P51812); experiment: Inhibition of human Rsk3 at 1 uM relative to control; values are per cent of control
Homo sapiens [13] = species on record: Homo sapiens; experiment: Inhibition of human MAPK2 at 1 uM relative to control; values are per cent of control
[14] = target: Protein kinase C delta type (Homo sapiens) (UniProt Q05655); experiment: Inhibition of human PKCdelta at 1 uM relative to control; values are per cent of control
Homo sapiens [15] = species on record: Homo sapiens; experiment: Inhibition of human CDK2/Cyclin E at 1 uM relative to control; values are per cent of control
Saccharomyces cerevisiae = experiment: Residual activity of yeast CK1 at 1 uM relative to control
Homo sapiens [16] = species on record: Homo sapiens; experiment: Residual activity of human CDK1/Cyclin B at 1 uM relative to control

Chain of Insulin-like growth factor 1 receptor (Homo sapiens) (P08069 31-736 limits assumed): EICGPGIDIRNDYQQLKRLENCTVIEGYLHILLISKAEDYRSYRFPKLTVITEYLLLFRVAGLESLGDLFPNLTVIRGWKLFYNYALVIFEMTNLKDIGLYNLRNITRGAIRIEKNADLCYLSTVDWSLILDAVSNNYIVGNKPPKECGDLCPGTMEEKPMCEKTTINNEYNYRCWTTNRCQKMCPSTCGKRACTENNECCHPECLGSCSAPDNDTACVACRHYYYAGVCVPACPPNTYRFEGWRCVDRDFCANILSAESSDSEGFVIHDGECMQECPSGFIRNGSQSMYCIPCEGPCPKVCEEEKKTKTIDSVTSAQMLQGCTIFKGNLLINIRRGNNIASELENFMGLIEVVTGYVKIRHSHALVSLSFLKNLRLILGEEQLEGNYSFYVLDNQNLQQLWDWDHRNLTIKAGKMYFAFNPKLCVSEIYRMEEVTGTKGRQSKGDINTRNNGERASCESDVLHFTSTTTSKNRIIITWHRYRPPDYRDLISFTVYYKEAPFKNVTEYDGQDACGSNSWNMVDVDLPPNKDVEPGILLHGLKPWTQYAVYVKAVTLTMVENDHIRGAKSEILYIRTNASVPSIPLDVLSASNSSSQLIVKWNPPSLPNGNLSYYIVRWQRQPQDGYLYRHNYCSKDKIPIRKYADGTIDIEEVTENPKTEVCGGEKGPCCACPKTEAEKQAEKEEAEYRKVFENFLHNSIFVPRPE
Chain of Insulin-like growth factor 1 receptor (Homo sapiens) (P08069 741-1367 limits assumed): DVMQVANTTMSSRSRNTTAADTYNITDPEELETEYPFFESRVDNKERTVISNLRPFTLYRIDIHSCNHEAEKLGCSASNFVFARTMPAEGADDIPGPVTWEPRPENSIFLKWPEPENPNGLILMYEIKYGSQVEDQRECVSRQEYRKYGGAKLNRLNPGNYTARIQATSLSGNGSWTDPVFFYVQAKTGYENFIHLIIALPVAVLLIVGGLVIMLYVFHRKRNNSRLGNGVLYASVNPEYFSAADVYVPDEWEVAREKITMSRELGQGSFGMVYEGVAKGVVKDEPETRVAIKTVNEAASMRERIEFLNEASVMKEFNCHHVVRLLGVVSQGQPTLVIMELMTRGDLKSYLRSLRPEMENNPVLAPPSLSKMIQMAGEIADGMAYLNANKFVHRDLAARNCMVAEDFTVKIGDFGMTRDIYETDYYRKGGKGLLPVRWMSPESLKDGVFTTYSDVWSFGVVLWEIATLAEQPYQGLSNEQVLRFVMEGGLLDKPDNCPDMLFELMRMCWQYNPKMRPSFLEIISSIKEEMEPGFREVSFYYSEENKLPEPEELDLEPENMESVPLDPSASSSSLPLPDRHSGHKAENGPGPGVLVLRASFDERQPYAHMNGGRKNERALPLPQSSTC
Chain of Fibroblast growth factor receptor 3 (Homo sapiens) (P22607 23-806 limits assumed): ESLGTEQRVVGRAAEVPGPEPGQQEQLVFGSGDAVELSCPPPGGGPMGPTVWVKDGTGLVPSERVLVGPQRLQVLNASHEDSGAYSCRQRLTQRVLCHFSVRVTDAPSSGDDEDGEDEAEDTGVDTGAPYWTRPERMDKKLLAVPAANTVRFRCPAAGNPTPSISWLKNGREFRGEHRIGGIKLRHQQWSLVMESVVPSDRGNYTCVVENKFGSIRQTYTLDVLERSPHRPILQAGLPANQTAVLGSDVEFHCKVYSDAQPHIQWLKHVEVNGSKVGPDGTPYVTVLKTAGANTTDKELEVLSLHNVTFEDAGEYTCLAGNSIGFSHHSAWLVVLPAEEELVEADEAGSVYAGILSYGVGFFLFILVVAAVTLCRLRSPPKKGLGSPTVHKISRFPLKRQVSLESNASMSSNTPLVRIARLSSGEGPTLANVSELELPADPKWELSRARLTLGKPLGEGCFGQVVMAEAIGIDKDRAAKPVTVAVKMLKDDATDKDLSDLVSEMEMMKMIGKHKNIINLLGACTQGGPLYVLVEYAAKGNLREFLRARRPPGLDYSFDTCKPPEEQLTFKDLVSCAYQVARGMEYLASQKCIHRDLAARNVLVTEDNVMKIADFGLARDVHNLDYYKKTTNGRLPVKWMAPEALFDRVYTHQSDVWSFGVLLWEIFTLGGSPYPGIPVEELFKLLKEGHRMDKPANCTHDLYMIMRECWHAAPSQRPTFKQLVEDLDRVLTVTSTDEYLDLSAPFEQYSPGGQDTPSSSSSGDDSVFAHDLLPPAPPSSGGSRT
Chain of Tyrosine-protein kinase Fes/Fps (Homo sapiens) (P07332 whole entry): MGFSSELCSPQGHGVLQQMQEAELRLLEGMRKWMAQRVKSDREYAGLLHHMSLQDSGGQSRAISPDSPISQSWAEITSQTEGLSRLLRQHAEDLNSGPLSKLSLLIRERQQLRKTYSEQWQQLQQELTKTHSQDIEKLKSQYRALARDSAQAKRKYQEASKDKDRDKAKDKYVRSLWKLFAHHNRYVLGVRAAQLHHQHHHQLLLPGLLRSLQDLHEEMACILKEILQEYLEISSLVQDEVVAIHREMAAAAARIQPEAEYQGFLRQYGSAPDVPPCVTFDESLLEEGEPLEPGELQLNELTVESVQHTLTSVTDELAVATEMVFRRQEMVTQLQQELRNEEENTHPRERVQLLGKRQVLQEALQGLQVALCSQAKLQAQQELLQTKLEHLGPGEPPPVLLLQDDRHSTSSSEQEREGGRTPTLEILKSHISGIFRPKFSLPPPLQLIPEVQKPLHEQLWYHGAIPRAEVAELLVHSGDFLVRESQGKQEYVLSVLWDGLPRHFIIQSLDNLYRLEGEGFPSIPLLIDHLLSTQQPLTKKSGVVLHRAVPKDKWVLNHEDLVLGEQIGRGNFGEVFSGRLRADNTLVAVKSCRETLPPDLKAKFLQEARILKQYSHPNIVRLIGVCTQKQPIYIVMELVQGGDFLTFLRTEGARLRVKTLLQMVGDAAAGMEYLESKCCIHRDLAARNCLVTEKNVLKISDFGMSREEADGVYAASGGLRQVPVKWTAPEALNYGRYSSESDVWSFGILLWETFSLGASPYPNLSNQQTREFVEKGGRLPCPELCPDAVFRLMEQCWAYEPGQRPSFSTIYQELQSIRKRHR
Chain of Glycogen synthase kinase-3 beta (P49841 whole entry): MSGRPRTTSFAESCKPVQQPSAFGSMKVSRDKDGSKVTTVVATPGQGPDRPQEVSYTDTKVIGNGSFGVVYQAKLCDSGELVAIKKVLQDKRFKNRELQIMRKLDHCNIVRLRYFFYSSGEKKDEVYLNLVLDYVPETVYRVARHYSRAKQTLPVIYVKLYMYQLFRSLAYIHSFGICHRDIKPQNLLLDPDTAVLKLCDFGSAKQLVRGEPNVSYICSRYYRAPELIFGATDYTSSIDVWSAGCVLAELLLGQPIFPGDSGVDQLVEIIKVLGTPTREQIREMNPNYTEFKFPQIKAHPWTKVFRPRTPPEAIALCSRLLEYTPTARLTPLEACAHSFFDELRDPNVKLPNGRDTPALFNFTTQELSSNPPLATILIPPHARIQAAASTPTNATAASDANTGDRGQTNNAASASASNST
Chain of Ribosomal protein S6 kinase alpha-2 (Homo sapiens) (Q15349 whole entry): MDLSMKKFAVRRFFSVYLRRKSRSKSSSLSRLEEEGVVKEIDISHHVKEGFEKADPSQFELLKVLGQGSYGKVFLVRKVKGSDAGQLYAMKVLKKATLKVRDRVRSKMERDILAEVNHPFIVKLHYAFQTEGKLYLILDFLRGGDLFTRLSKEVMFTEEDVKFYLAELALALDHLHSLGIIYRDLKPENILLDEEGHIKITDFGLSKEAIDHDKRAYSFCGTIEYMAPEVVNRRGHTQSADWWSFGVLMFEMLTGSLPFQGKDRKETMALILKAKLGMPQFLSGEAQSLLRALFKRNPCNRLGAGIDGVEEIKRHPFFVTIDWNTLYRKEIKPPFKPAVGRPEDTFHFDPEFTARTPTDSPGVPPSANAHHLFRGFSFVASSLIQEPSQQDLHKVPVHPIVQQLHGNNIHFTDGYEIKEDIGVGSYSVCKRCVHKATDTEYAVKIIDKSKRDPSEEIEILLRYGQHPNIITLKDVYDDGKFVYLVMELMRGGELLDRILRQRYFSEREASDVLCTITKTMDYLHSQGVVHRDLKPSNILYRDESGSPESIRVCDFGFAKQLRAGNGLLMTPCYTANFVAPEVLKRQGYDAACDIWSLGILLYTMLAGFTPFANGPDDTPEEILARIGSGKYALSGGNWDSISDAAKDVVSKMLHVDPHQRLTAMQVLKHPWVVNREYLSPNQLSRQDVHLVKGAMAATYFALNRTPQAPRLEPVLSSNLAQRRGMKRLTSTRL
Chain of Protein kinase C delta type (Homo sapiens) (Q05655 whole entry, looked up): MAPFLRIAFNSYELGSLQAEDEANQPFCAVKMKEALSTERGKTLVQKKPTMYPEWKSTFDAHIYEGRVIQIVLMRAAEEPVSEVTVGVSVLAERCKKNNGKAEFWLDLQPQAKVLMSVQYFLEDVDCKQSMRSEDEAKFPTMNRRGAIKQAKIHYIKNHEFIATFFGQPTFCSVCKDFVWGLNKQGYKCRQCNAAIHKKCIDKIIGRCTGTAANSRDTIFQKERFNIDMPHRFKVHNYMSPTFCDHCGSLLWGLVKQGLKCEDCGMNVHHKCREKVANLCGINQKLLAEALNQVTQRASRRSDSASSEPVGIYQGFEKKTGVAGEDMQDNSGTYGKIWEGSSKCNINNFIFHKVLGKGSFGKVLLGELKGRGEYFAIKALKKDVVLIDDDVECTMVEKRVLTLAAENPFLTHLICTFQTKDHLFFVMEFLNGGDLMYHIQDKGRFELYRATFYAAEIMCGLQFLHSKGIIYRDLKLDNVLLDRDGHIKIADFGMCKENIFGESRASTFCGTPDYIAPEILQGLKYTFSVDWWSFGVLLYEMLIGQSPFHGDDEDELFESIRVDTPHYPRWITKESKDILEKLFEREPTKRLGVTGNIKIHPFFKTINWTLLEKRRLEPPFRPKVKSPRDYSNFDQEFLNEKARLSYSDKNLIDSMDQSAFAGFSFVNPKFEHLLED

Row | IC50 [1] [nM] | residual activity [2] [%] | residual activity [3] [%] | residual activity [4] [%] | residual activity [5] [%] | residual activity [6] [%] | residual activity [7] [%] | residual activity [8] [%] | residual activity [9] [%] | residual activity [10] [%] | residual activity [11] [%] | residual activity [12] [%] | residual activity (Homo sapiens [13]) [%] | residual activity [14] [%] | residual activity (Homo sapiens [15]) [%] | residual activity (Saccharomyces cerevisiae) [%] | residual activity (Homo sapiens [16]) [%] | SMILES
1 | 30 | 106 | 117 | 106 | 102 | 97 | 103 | 130 | 86 | 102 | 63 | 25 | 88 | 91 | 88 | – | – | O=C1NC(=O)C2=C1c1cn(c3ccccc13)CCCc1ccc(c(N3CCCC3)n1)CCCn1cc2c2ccccc21
2 | 7 | 101 | 84 | 37 | 118 | 83 | 79 | 133 | 84 | 96 | 10 | 5 | 104 | 100 | 84 | 98 | 98 | CN(C)c1cc2cc(n1)CCCn1cc(c3ccccc31)C1=C(C(=O)NC1=O)c1cn(c3ccccc13)CCC2
3 | 11 | 99 | 114 | 42 | 104 | 93 | 77 | 139 | 100 | 101 | 12 | 5 | 92 | 104 | 88 | 99 | 80 | O=C1NC(=O)C2=C1c1cn(c3ccccc13)CCCc1cc(nc(N3CCCC3)c1)CCCn1cc2c2ccccc21
4 | 3 | 94 | 75 | 84 | 86 | 72 | 100 | 107 | 103 | 88 | 32 | 33 | 102 | 73 | 54 | 91 | 78 | CN(C)c1nc2ccc1CCCn1cc(c3ccccc31)C1=C(C(=O)NC1=O)c1cn(c3ccccc13)CC2
